Columns and labels:
HBV = experiment: Viral load production in AD38 cells, quantitative PCR of the core sequence in supernatant; type: cell-based; settings: 10 μM compound, 6 days at 37° C., supernatant qPCR vs DMSO control; for activity at 10 µM: Hepatitis B virus, 144 h, read-out: AD38 Viral Load (%) (VL with cmpd/VL in DMSO control) at 10 μM
Experimental: (§1) Example 63: Assay Measuring Activity of Compounds on Viral Production in and on Viability of AD38 Cells
(§2) AD38 cells were then re-suspended with 10 mL of Treatment Medium and counted. Wells of a collagen coated 96-well NUNC microtiter plate were seeded at 50,000/well in 180 μL of Treatment Medium, and 20 μL of in treatment media with either 10% DMSO (Control) or a 10× solution of compound in 10% DMSO was added. Plates were incubated for 6 days at 37° C.
Viral load production was assayed by quantitative PCR of the core sequence. […] The PCR mixture was incubated at 45° C. for 5 minutes, then 95° C. for 10 min, followed by 40 cycles of 10 seconds at 95° C. and 20 seconds at 60° C. Viral load was quantitated against known standards by using ViiA™ 7 Software. Viral load in the supernatant from wells with treated cells were compared against viral load in supernatant from DMSO control wells (≥3 per plate).

AD38 cells = experiment: Viability of AD38 cells, Promega CellTiter-Glo; type: cell-based; settings: 10 μM compound, 6 days, CellTiter-Glo luminescence, controls being 100%
Experimental: as §1, §2
At the end of compound treatment period cell viability was assessed using a Promega CellTiter-Glo protocol. All supernatant was removed the previously treated 96-well microtiter plate, and 50 μL Tetracycline-free treatment medium (DMEM/F12 (1:1), 1×Pen/step (cat#: 30-002-CL, Mediatech, Inc), with 2% FBS, Tet-system approved (cat#: 631106, Clontech), and 1% DMSO was added back to each well. Another 50 μL of CellTiter-Glo reagent solution (Promega, G7573) was then added at room temperature and the contents mixed for 2 minutes on an orbital shaker to induce cell lysis. This was followed by incubation at room temperature for 10 minutes to stabilize the luminescent signal. The luminescence was recorded for 0.2 seconds per well on a Tecan multimode platereader (Infinite M1000 pro). The luminescent signal from each well was normalized against that of untreated (DMSO) control wells. All results in Table 3 were reported with percent viability (with controls being 100%).

Structure (SMILES)	AD38 Viral Load (%) (VL with cmpd/VL in DMSO control) at 10 μM (HBV)	AD38 Viability Normalized Result (cmpd/DMSO %) at 10 μM (AD38 cells)	activity at 10 µM (HBV)
NCc1ccc(-c2ccc(CNC(=O)c3ccc4c(c3)NC(=O)c3ccccc3O4)cc2)cc1 [Compound 726]	6.1%	1%	
N#Cc1cccc(-c2ccc(CNC(=O)c3ccc4c(c3)NC(=O)c3ccccc3O4)cc2)c1 [Compound 728-A]		120%	66.8%
O=C(NCc1ccc(-c2ccc3[nH]cnc3c2)cc1)c1ccc2c(c1)NC(=O)c1ccccc1O2 [Compound 729]		97%	16.3%
O=C(NCc1ccc(-c2ccc3[nH]ccc3c2)cc1)c1ccc2c(c1)NC(=O)c1ccccc1O2 [Compound 730]		101%	24.2%
O=C(NCc1cccc(Cc2cccc(O)c2)c1)c1ccc2c(c1)NC(=O)c1ccccc1O2 [Compound 740]		103%	23.8%
O=C(NCc1cccc(Cc2ccc(O)cc2)c1)c1ccc2c(c1)NC(=O)c1ccccc1O2 [Compound 741, N-(3-(4-hydroxybenzyl)benzyl)-11-oxo-10,11-dihydrodibenzo[b,f][1,4]oxazepine-8-carboxamide]		111%	40.1%
COc1ccc(Cc2cccc(CNC(=O)c3ccc4c(c3)NC(=O)c3ccccc3O4)c2)cc1 [Compound 741-A]		89%	42.4%
O=C(NCc1cccc(Sc2cccc(O)c2)c1)c1ccc2c(c1)NC(=O)c1ccccc1O2 [Compound 742, N-(3-((3-hydroxyphenyl)thio)benzyl)-11-oxo-10,11-dihydrodibenzo[b,f][1,4]oxazepine-8-carboxamide]		89%	12.7%
COc1cccc(Sc2cccc(CNC(=O)c3ccc4c(c3)NC(=O)c3ccccc3O4)c2)c1 [Compound 742-A, N-(3-((3-methoxyphenyl)thio)benzyl)-11-oxo-10,11-dihydrodibenzo[b,f][1,4]oxazepine-8-carboxamide]		107%	2.6%
O=C(NCc1cccc(Sc2ccc(O)cc2)c1)c1ccc2c(c1)NC(=O)c1ccccc1O2 [Compound 743, N-(3-((4-hydroxyphenyl)thio)benzyl)-11-oxo-10,11-dihydrodibenzo[b,f][1,4]oxazepine-8-carboxamide]		102%	6.8%
COc1ccc(Sc2cccc(CNC(=O)c3ccc4c(c3)NC(=O)c3ccccc3O4)c2)cc1 [Compound 743-A]		91%	22.7%
O=C(NCc1cccc(Oc2cccc(O)c2)c1)c1ccc2c(c1)NC(=O)c1ccccc1O2 [Compound 744, N-(3-(3-hydroxyphenoxy)benzyl)-11-oxo-10,11-dihydrodibenzo[b,f][1,4]oxazepine-8-carboxamide]		108%	62.9%
COc1cccc(Oc2cccc(CNC(=O)c3ccc4c(c3)NC(=O)c3ccccc3O4)c2)c1 [Compound 744-A, N-(3-(3-methoxyphenoxy)benzyl)-11-oxo-10,11-dihydrodibenzo[b,f][1,4]oxazepine-8-carboxamide]		103%	8.9%
O=C(NCc1cccc(Oc2ccc(O)cc2)c1)c1ccc2c(c1)NC(=O)c1ccccc1O2 [Compound 745, N-(3-(4-hydroxyphenoxy)benzyl)-11-oxo-10,11-dihydrodibenzo[b,f][1,4]oxazepine-8-carboxamide]		108%	38.7%
COc1ccc(Oc2cccc(CNC(=O)c3ccc4c(c3)NC(=O)c3ccccc3O4)c2)cc1 [Compound 745-A, N-(3-(4-methoxyphenoxy)benzyl)-11-oxo-10,11-dihydrodibenzo[b,f][1,4]oxazepine-8-carboxamide]		92%	16.1%
NC(=O)c1ccc(-c2ccc(CNC(=O)c3ccc4c(c3)NC(=O)c3ccccc3S4(=O)=O)cc2)cc1 [Compound 765]	59.4%	103%	
O=C(NCc1cccc(-c2ccc(O)cc2)c1)c1ccc2c(c1)NC(=O)c1ccccc1S2(=O)=O [Compound 773]		87%	0.6%
O=C(NCc1cccc(-c2cccc(O)c2)c1)c1ccc2c(c1)NC(=O)c1ccccc1S2(=O)=O [Compound 774]		113%	48.5%
COc1ccc(-c2ccc(CNC(=O)c3ccc4c(c3)NC(=O)c3ccccc3S4(=O)=O)cc2)cn1 [Compound 775, N-(4-(6-methoxypyridin-3-yl)benzyl)-11-oxo-10,11-dihydrodibenzo[b,f][1,4]thiazepine-8-carboxamide 5,5-dioxide]		93%	2.6%
O=C(NCc1ccc(-c2ccc(O)nc2)cc1)c1ccc2c(c1)NC(=O)c1ccccc1S2(=O)=O [Compound 776, N-(4-(6-hydroxypyridin-3-yl)benzyl)-11-oxo-10,11-dihydrodibenzo[b,f][1,4]thiazepine-8-carboxamide 5,5-dioxide]		100%	63.1%
Nc1ncc(-c2ccc(CNC(=O)c3ccc4c(c3)NC(=O)c3ccccc3S4(=O)=O)cc2)cn1 [Compound 777]		99%	11.7%
O=C(NCc1cccc(Cc2cccc(O)c2)c1)c1ccc2c(c1)NC(=O)c1ccccc1S2(=O)=O [Compound 808, N-(3-(3-hydroxybenzyl)benzyl)-11-oxo-10,11-dihydrodibenzo[b,f][1,4]thiazepine-8-carboxamide 5,5-dioxide]		90%	3%
COc1cccc(Cc2cccc(CNC(=O)c3ccc4c(c3)NC(=O)c3ccccc3S4(=O)=O)c2)c1 [Compound 808-A, N-(3-(3-methoxybenzyl)benzyl)-11-oxo-10,11-dihydrodibenzo[b,f][1,4]thiazepine-8-carboxamide 5,5-dioxide]		84%	1.5%
O=C(NCc1cccc(Cc2ccc(O)cc2)c1)c1ccc2c(c1)NC(=O)c1ccccc1S2(=O)=O [Compound 809, N-(3-(4-hydroxybenzyl)benzyl)-11-oxo-10,11-dihydrodibenzo[b,f][1,4]thiazepine-8-carboxamide 5,5-dioxide]		77%	1.1%
COc1ccc(Cc2cccc(CNC(=O)c3ccc4c(c3)NC(=O)c3ccccc3S4(=O)=O)c2)cc1 [Compound 809-A, N-(3-(4-methoxybenzyl)benzyl)-11-oxo-10,11-dihydrodibenzo[b,f][1,4]thiazepine-8-carboxamide 5,5-dioxide]		85%	0.6%
O=C(NCc1cccc(Oc2cccc(O)c2)c1)c1ccc2c(c1)NC(=O)c1ccccc1S2(=O)=O [Compound 810, N-(3-(3-hydroxyphenoxy)benzyl)-11-oxo-10,11-dihydrodibenzo[b,f][1,4]thiazepine-8-carboxamide 5,5-dioxide]		93%	3.2%

Reference: patent publication US10766890B2, “Hepatitis B core protein modulators” (Assembly Biosciences, Inc., priority 2015, dated 2020)
